Test results from patent US20040063731A1, “Pharmaceutical formulation comprising pyrazolo[4,3-d]pyrimidines and endothelin receptor antagonists or thienopyrimidines and endothelin receptor antagonists” (priority 2001, published 2004).
Where a name gives a salt, the structure may show the parent alone.

SMILES | melting point
COc1ccc(CNc2nc(CCC(=O)O)nc3sc4c(c23)CCCC4)cc1Cl (as salt: salt) [Example 2, 3-[4-(3-chloro-4-methoxybenzylamino)-5,6,7,8-tetrahydro-[1]-benzothieno[2,3-d)pyrimidin-2-yl)propionic acid] | 135 °C
CCCc1nn(C)c2c(NCc3ccc(OC)c(Cl)c3)nc(-c3ccc(C(=O)O)cc3)nc12 (as salt: salt) [Example 3, 4-[7-(3-chloro-4-methoxybenzylamino]-methyl-3-propyl-1H-pyrazolo-[4,3-d]pyrimidin-5-yl]benzoic acid] | 139 °C
CCCc1nn(C)c2c(NCc3ccc(OC)c(Cl)c3)nc(CCC(=O)O)nc12 [Example 2, 3-[7-(3-chloro-4-methoxybenzylamino)-1-methyl-3-propyl-1H-pyrazolo-[4,3-d]pyrimidin-5-yl]propionic acid] | 178 °C

Results, then the molecule that gave them:

melting point | SMILES
229 °C | COc1ccc(CNc2nc(CCC(=O)O)nc3sc4c(c23)CCCC4)cc1Cl [Example 2, 3-[4-(3-chloro-4-methoxybenzylamino)-5,6,7,8-tetrahydro-[1]-benzothieno[2,3-d)pyrimidin-2-yl)propionic acid]
189 to 190 °C | COc1ccc(CNc2nc(-c3ccc(C(=O)O)cc3)nc3sc4ccccc4c23)cc1Cl (as salt: salt) [Example 3, 4-[4-(3-chloro-4-methoxybenzylamino)-[1]-benzothieno[2,3-d]-pyrimidin-2-yl]benzoic acid]
